Source: PMC6013775, “Inhibition of the key enzyme of sialic acid biosynthesis by C6-Se modified N-acetylmannosamine analogs” (Chemical Science, 2016)
“And” between values parts separate entries of the source, which are not always exact repeats. Identical values can stand only once.

Experiments:
[1] = Stability of the diselenide towards thiol reducing agents, 77Se NMR; format: physicochemical
Protocol: At this stage, we also wanted to evaluate the stability of the diselenide 14b in presence of thiol-containing reducing agents like dithiothreitol (DTT) or glutathione (GSH) to address the application of our compounds in living cells. Therefore, the possible reduction of the diselenide bond was monitored by ^77Se NMR using a solution of 60 mM concentration of 14b in an aqueous saturated DTT solution at room temperature. Immediately after the addition of 14b to the DTT solution, a characteristic signal for the selenol compound at –48.1 ppm was observed and a major peak at 294 ppm related to the diselenide. Concretely, the integration of diselenide/selenol peaks gave a 90 : 10 ratio (details in ESI ^†).

[2] = molecular target: hexokinase (HK) from yeast; assay: Hexokinase inhibition, coupled optical assay; format: biochemical; conditions: glucose substrate
Excerpt: (§1) With the potent diselenide compound 14b in hand, we further studied the binding properties of this potent MNK inhibitor, which is to our knowledge the strongest MNK inhibitor reported to date. Diselenide 14b inhibited MNK activity in a dose dependent manner (Fig. 2A). […] Additionally, we tested if diselenide 14b influenced the GNE activity of the bifunctional GNE/MNK. […] To evaluate the specificity of the inhibitor towards other sugar kinases, we performed further inhibition studies using human GlcNAc kinase (GNK) and hexokinase (HK) from yeast (details in ESI ^†).
(§2) Enzyme activity and inhibition studies using N-acetylmannosamine kinase, N-acetylglucosamine kinase and yeast hexokinase
Evaluation MNK activity in presence of the compounds 11, 12, 14b, 16b and 18b The effects of compounds 11, 12, 14b, 16b, or 18b on MNK enzyme activity were evaluated using a coupled optical assay. 55 µl reaction mixture contained the following buffers and reagents: 39.5 µl buffer A (65 mM MgCl2, 200 mM Tris-HCl, pH 8.1), 5 µl ATP (50 mM), 3.5 µl NADH (30 mM), 2 µl phosphoenolpyruvate (100 mM), 2 U pyruvate-kinase, 2 U lactate-dehydrogenase, 5 µl ManNAc of varying concentrations. Subsequently, 10 µl of the compounds 11, 12, 14b, 16b and 18b were added in varying concentrations. The reaction was initiated by adding 0.6 µg MNK in 35 µL buffer B (10 mM Tris-HCl, 150 mM NaCl, pH 8.0). […]

[3] = molecular target: T1, human GlcNAc kinase (GNK) (Homo sapiens, UniProt Q9UJ70); assay: GNK inhibition, coupled optical assay; format: biochemical
T1 construct: GST; made in house; host or cells: Escherichia coli BL21-CodonPlus(DE3)-RIL
T1 sequence (Q9UJ70 whole entry): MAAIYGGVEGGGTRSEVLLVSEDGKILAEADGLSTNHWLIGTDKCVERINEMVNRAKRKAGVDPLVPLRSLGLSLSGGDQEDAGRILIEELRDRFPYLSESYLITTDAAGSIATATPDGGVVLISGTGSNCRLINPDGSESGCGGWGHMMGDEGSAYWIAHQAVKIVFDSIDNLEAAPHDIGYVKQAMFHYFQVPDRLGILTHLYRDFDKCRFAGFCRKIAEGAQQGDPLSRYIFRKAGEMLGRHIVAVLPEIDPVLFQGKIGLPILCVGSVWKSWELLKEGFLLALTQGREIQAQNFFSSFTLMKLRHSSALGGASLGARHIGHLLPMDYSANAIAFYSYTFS
Excerpt: as §1
(§3) N-Acetylmannosamine kinase and N-acetylglucosamine kinase expression and […]
(§4) Human N-acetylmannosamine kinase (MNK) was expressed and purified using an established method.1 Therefore, his-tagged MNK was expressed in BL21-CodonPlus (DE3)-RIL Escherichia coli (Stragene). Purification was performed by Ni-NTA affinity chromatography, and subsequently size exclusion chromatography on a SuperdexTM HighLoad 16/600 column (GE Healthcare). […]
Evaluation MNK activity in presence of the compounds 11, 12, 14b, 16b and 18b The effects of compounds 11, 12, 14b, 16b, or 18b on MNK enzyme activity were evaluated using a coupled optical assay. […]

[4] = molecular target: T2, human MNK (N-acetylmannosamine kinase) (Homo sapiens, UniProt Q9Y223); assay: MNK activity, coupled optical assay based on NADH consumption; format: biochemical
T2 construct: His; made in house; host or cells: Escherichia coli BL21-CodonPlus (DE3)-RIL
T2 sequence (Q9Y223 406-722 limits assumed): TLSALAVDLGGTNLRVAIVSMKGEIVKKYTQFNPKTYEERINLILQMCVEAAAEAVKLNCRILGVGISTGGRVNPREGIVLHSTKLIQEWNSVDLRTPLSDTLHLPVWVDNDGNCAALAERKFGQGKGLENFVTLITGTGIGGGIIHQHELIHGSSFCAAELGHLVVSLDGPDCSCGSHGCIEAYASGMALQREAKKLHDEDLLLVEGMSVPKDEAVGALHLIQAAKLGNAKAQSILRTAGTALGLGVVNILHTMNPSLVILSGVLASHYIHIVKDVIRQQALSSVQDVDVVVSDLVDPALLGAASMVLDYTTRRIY
Protocol: as §3, §4
To evaluate their purity, protein samples were mixed with SDS-PAGE sample buffer, denatured at 90 °C for 1 min and separated by a 10% SDS-PAGE gel. Proteins were visualized with Coomassie G-250 staining solution (Biorad), and PageRuler Prestained Plus (Biorad) was used as a marker (Figure S1 ).
Figure S1. SDS-PAGE of His-tagged MNK (His-MNK) and GST-tagged GNK
(GST-GNK) after affinity chromatography and size exclusion chromatography.
Apparent molecular masses given by the marker are indicated on the left side.
1 J. Martinez, L. D. Nguyen, S. Hinderlich, R. Zimmer, E. Tauberger, W. Reutter, W. Saenger, H. Fan
2 W.A. Weihofen, M. Berger, H. Chen, W. Saenger, and S. Hinderlich, J. Mol. Biol., 2006, 364, 388.
(1 picture or pasted object on this page, not shown here)
as §2
Evaluation MNK activity in presence of the compounds 11, 12, 14b, 16b and 18b The effects of compounds 11, 12, 14b, 16b, or 18b on MNK enzyme activity were evaluated using a coupled optical assay. 55 µl reaction mixture contained the following buffers and reagents: 39.5 µl buffer A (65 mM MgCl2, 200 mM Tris-HCl, pH 8.1), 5 µl ATP (50 mM), 3.5 µl NADH (30 mM), 2 µl phosphoenolpyruvate (100 mM), 2 U pyruvate-kinase, 2 U lactate-dehydrogenase, 5 µl ManNAc of varying concentrations. Subsequently, 10 µl of the compounds 11, 12, 14b, 16b and 18b were added in varying concentrations. The reaction was initiated by adding 0.6 µg MNK in 35 µL buffer B (10 mM Tris-HCl, 150 mM NaCl, pH 8.0). Samples were incubated at 37°C. Spectrophotometric measurements of NADH concentration was performed at 340 nm. Results obtained were normalized to blanks, consisting of 55 µl reaction mixture, 10 µl H 2O and 35 µl buffer B without MNK.
GNK and hexokinase inhibition assays using compound 14b
To evaluate the specificity of the inhibitor 14b towards other sugar kinases, we performed further inhibition experiments using human GNK and hexokinase (HK) from yeast (Sigma, H-5000). 39.5 µl Buffer A (see above), 5 µl ATP (50 mM), 3.5 µl NADH (30 mM), 2 µl phosphoenolpyruvate (100 mM), 2 U pyruvate-kinase, 2 U lactate-dehydrogenase, 5 µl GlcNAc (7.5 mM, for GNK experiments), or 5 µl ManNAc (7.5 mM, for GNK experiments), or glucose (5 mM, for HK experiments), and 10 µl 14b (varying concentrations) were mixed with either 1 µg GNK or 0.2 µg HK in 35 µL buffer B. The decrease of NADH was measured in a spectrophotometer […]
5 mM for HK activity, respectively (Figure S2).
Figure S2. Inhibition of GNK and HK activity by 14b. Values are means ± SEM of […]

CC(=O)N[C@@H]1C(O)O[C@H](C[Se][Se]C[C@H]2OC(O)[C@@H](NC(C)=O)[C@@H](O)[C@@H]2O)[C@@H](O)[C@@H]1O (stereo partly shown) [Compound 14b]
species detected by 77Se NMR ([1]; 60 mM in aqueous saturated DTT solution, between 15 min and 5 h): only signals from the diselenide were detected
species detected by 77Se NMR ([1]; 60 mM in saturated GSH solution): only diselenide 14b was detected
IC50 [2]: > 5000 µM
IC50 [3]: ~1700 µM and 1700 µM
mode of inhibition towards ManNAc ([4]; 14b 25 μM, different concentrations of ManNAc): competitive inhibition
Ki ([4]; 14b 25 μM, different concentrations of ManNAc, Lineweaver-Burk plot, read-out: inhibitor constant (Ki)): 15.7 µM
IC50 ([4]; purified human MNK, ManNAc 125 μM, ATP, means ± SEM, read-out: IC50 for MNK inhibition): 8.5 µM
